# Key:
# [1] = system: human aortic endothelial cells (HAEC); details: HAEC pre-treated with increasing amounts; DEA-NONOate 10 min, DETA-NONOate 16 h, SNAP 6 h, NEM 1 h, L-NAME 16 h
# Experimental: To explore the effect of NO upon granule exocytosis, thrombin induced exocytosis of Weibel-Palade bodies from human aortic endothelial cells (HAEC) which release von Willebrand's Factor (vWF) was studied. HAEC was pre-treated with an NO donor 2-(N,N-diethylamino)-diazenolate-2-oxide (DEA-NONOate) 10 mM or with DEA as a control, stimulated the cells with thrombin 1 U/ml for 1 h, and the amount of vWF released into the media was then measured. […] HAEC was then pre-treated with increasing amounts of various NO donors, including a rapidly releasing NO donor DEA-NONOate for 10 min, a slowly releasing NO donor DETA-NONOate for 16 h, or a nitrosothiol S-nitroso-penicillamine (SNAP) for 6 h; alternatively, cells were treated with NEM for 1 h.
# The role of endogenous NO in the regulation of Weibel-Palade body exocytosis was then explored. HAEC was pre-treated with L-NAME for 16 h in order to inhibit endogenous NOS, and then the cells were stimulated with 1 U/ml thrombin for 1 h and vWF release was measured. […] HAEC was next pre-treated with vascular endothelial growth factor (VEGF) in order to activate endogenous NOS3. Cells were incubated with 50 ng/ml VEGF or control for 2 h, and then stimulated with thrombin.
# A peptide inhibitor of NSF that crosses cell membranes was designed. This peptide, designated TAT-NSF222, includes the protein transduction domain of HIV TAT (residues 47-57) previously shown to transduce polypeptides into cells (Becker-Hapak et al., 2001), fused to a fragment of NSF (residues 222-243) previously shown to inhibit NSF (Schweizer et al., 1998). […] HAEC were then incubated for 20 min with TAT-NSF222, or with a control peptide TAT-NSF222scr that consisted of the intact TAT domain followed by the amino acid residues of NSF 222-243 in a scrambled order. HAEC were transduced with TAT-NSF peptides, treated with media or thrombin, and the amount of vWF released into the media was measured by ELISA.
# Since NSF plays a general role in vesicle trafficking, permanent inactivation of NSF would slow vesicular trafficking in general. However, local production of NO at the plasma membrane and reversible nitrosylation of NSF could provide spatial regulation of NSF.
# Human aortic endothelial cells (HAEC) and EGM-2 media were obtained from Clonetics (Walkersville, Md.). HAEC were pre-treated with NO donors, washed, stimulated with 1 U/mil of thrombin, and the amount of vWF released into the media was measured by an ELISA (American Diagnostica, Greenwich, Conn.). HAEC were permeabilized by incubation with 10 U/well of SLO (Sigma) in PBS pH 7.4 for 15 min at 37° C. (Walev et al., 2001). Some cells were incubated with 20-200 μg/ml of antibodies or with 100 μg/ml of recombinant NSF. Cells were then resealed by incubation with EGM-2 media for 4 h at 37° C., washed with EGM-2 media, and stimulated with thrombin as above.
# The ability of TAT-NSF to affect exocytosis from cells was investigated. Endothelial cells release vWF by exocytosis when stimulated by thrombin. Accordingly, endothelial cells were incubated with increasing amounts of TAT-NSF peptides for 20 min, then treated with 1 U/ml thrombin, and the amount of vWF released into the media was measured by ELISA.
# Human aortic endothelial cells (HAEC) and EGM-2 media were obtained from Clonetics (Walkersville, Md.). HAEC were pre-treated with TAT-NSF peptides for 20 min, washed, stimulated with 1 U/ml of thrombin, and the amount of vWF released into the media was measured by an ELISA (American Diagnostica, Greenwich, Conn.).
# [2] = molecular target: T1, recombinant NSF (Cricetulus griseus, UniProt P18708); assay: NSF ATPase assay (coupled colorimetric assay); type: biochemical; details: recombinant NSF
# T1 construct: RGS-(His)6 (N); made in house; host or cells: bacteria
# Experimental: The effect of NO upon NSF activity was next explored, since NO inhibits Weibel-Palade body exocytosis, and since NSF regulates Weibel-Palade body exocytosis. The effect of NO upon the ATPase activity of NSF was first examined. DEA-NONOate was added to recombinant NSF, and the ATPase activity of NSF was measured.
# (§1) The ATPase activity of NSF was measured by a coupled assay, in which ATP utilization is linked to the pyruvate kinase reaction, which generates pyruvate, which in turn is measured continuously with lactate dehydrogenase (Huang and Hackney, 1994). Recombinant NSF (0.2 μg/μl) was pre-treated with buffer or DEA or DEA-NONOate or NEM for 10 min at 22° C. ATPase reaction buffer (100 mM HEPES buffer, pH 7.0, 100 mM KCl, 10 mM MgCl2, 5 mM CaCl2, 10 mM ATP, 5 mM phosphoenol pyruvate, 50 U lactate dehydrogenase, and 50 U pyruvate kinase) was added to the mixture, followed by 10 μl of NADH (2 mg/ml in 1% sodium bicarbonate). The mixture was incubated for 10 min at 22° C., and the absorbance was measured at 340 nm.
# The effect of the TAT-NSF peptide inhibitors upon the ability of NSF to hydrolyze ATP was measured. 10 μM TAT-NSF peptides was added to recombinant NSF, and the hydrolysis of ATP was measured. All 5 TAT-NSF peptides inhibited NSF ATPase activity (FIG. 8A). […] The effects of TAT-NSF81 (SEQ ID NO: 6) upon NSF were further defined. TAT-NSF81 (SEQ ID NO: 6) inhibits NSF ATPase activity in a dose-dependent manner with an IC50% between 1-10 μM (FIG. 8B).
# as §1, with “TAT-NSF peptides” for “DEA or DEA-NONOate or NEM”
# [3] = molecular target: T2, NSF disassembly of the SNARE complex (Cricetulus griseus, UniProt P18708); type: biochemical; details: ATP
# T2 construct: made in house; host or cells: bacteria (NSF, alpha-SNAP); BL21 cells (GST-SNAREs)
# Experimental: Accordingly, recombinant NSF was pre-treated with the NO donor DEA-NONOate 1 mM for 10 min. Pre-treated NSF, α-SNAP, and detergent extracts of HAEC membranes were then mixed in the presence of 0.5 mM ATP or ATP-γS. These reactions were then fractionated by sucrose density gradient ultracentrifugation, fractions were collected from the bottom of the tube, and immunoblotted with antibody to syntaxin-4.
# The effect of NO upon NSF disassembly of purified, recombinant SNARE molecules was next examined. Recombinant (His)6-NSF was pre-treated or not with 1 mM DEA-NONOate for 10 min, and then mixed with and (His)6-a-SNAP and recombinant SNARE fusion polypeptides identified in endothelial cells: GST-syntaxin-4, VAMP-3, and SNAP-23. ATP or ATP-γS was added, the mixture was precipitated with glutathione-sepharose beads, and precipitated proteins were fractionated by SDS-PAGE and immunoblotted with antibody to the NSF tag.
# The disassembly activity of NSF was measured by a co-precipitation assay (Pevsner et al., 1994). […] This mixture of NSF and SNARE polypeptides was then incubated in binding buffer (4 mM HEPES pH 7.4, 0.1M NaCl, 1 mM EDTA, 3.5 mM CaCl2, 3.5 mM MgCl2, and 0.5% Nonidet P-40) and glutathione-sepharose beads for 1 h at 4° C. with rotation. The beads were washed with binding buffer 4 times, mixed with SDS-PAGE sample buffer, boiled for 3 min, and analyzed by immunoblotting.
# The effect of the TAT-NSF peptide inhibitors upon the ability of NSF to separate from SNARE complexes was measured. Recombinant NSF was pre-treated with 1 μM TAT-NSF peptides, and recombinant GST-SNARE polypeptides were then added, including syntaxin-4, SNAP-23, and VAMP-3. […]
# The effect of TAT-NSF peptides on NSF disassembly activity was determined. […]
# TAT-NSF81 (SEQ ID NO: 6) inhibition of NSF disassembly activity was also investigated. […] ATP was added, GST-SNAREs were precipitated with glutathione-sepharose, and the precipitant was analyzed for the co-precipitation of NSF.
# The disassembly activity of NSF was measured by a co-precipitation assay (Pevsner et al., 1994). […]
# [4] = molecular target: T1, recombinant NSF; assay: S-nitrosylation of recombinant NSF (Saville reaction); type: biochemical; details: 1 mM DEA-NONOate
# Experimental: The number of cysteine residues that are nitrosylated by exogenous NO was next measured. Recombinant NSF was exposed to increasing amounts of DEA-NONOate, and then the Saville reaction was used to measure the number of nitrosocysteine residues per molecule of NSF. NO nitrosylates NSF in a dose-dependent manner (FIG. 4C). At 1 mM DEA-NONOate, approximately 3 cysteine residues are modified by NO per each molecule of NSF.
# Measurement of cysteine residues nitrosylated in vitro was performed by the Saville and Griess assays (Saura et al., 1999). Measurement of NSF nitrosylated in cultured cells was performed by immunoprecipitation with antibody to nitrosocysteine, followed by immunoblotting with antibody to NSF. Measurement of cysteine residues nitrosylated in vivo was performed as previously (Jaffrey et al., 2001; Jaffrey and Snyder, 2001).
# T2 sequence (P18708 whole entry): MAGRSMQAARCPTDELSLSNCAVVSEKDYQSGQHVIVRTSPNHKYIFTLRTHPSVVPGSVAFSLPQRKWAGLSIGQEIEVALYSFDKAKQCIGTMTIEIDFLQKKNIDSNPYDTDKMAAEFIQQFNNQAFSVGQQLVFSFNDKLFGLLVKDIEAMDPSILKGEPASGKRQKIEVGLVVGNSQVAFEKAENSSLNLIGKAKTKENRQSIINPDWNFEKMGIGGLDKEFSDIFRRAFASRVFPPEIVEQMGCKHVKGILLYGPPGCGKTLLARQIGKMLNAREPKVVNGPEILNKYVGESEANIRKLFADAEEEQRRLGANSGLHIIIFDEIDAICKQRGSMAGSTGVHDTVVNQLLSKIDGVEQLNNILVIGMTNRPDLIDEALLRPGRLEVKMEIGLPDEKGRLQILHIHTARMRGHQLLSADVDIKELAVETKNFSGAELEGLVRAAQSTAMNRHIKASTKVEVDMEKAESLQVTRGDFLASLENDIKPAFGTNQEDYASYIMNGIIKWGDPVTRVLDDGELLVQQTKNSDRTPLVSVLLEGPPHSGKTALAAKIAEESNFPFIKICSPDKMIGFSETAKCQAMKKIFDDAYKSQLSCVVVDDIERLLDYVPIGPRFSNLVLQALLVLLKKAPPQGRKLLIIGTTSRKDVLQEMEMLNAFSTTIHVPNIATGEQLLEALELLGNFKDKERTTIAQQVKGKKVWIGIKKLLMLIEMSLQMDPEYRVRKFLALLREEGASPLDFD
# T2 sequence (P81125 whole entry partner): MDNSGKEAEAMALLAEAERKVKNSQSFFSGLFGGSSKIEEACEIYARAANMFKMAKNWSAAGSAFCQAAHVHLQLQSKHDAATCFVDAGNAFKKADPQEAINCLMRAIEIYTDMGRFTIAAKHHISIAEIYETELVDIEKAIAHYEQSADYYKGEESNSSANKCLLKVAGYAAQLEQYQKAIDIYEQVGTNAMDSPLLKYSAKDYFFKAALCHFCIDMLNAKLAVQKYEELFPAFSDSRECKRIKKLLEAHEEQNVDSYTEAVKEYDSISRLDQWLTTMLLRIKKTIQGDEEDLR
# T2 sequence (Q12846 whole entry partner): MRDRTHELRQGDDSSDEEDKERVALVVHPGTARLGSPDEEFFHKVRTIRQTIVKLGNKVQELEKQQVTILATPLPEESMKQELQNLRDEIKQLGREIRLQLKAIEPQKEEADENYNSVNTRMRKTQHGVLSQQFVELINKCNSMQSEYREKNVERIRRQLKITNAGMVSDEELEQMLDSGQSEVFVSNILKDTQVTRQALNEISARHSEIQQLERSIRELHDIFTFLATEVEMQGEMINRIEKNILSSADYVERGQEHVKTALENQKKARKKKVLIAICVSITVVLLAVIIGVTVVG
# T2 sequence (Q15836 whole entry partner): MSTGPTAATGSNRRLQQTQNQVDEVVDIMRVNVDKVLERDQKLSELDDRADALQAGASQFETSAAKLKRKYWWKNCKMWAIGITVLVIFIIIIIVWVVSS
# T2 sequence (O00161 whole entry partner): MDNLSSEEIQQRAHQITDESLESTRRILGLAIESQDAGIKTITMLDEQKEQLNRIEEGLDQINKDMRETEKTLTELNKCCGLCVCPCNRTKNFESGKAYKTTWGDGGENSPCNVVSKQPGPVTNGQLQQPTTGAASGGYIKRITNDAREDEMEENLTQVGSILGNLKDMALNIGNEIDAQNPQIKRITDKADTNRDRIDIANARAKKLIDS
# T1 sequence (P18708 whole entry): as the sequence (P18708 whole entry) above
smiles,measurement,setting,value
"CCN(CC)[N+]([O-])=NO [DEA-NONOate, 2-(N,N-diethylamino)-diazenolate-2-oxide]","effect on thrombin induced vWF release, dose response",[1],inhibits thrombin induced vWF release
same,effect on NSF ATPase activity,[2],does not significantly inhibit NSF hydrolysis of ATP
same,effect on NSF disassembly of 20S SNARE complex from endothelial cell extracts,"[3]; NSF pre-treated with 1 mM for 10 min, HAEC membrane extracts",inhibits the ability of NSF to disassemble a 20S SNARE complex
same,effect on NSF disassembly activity,"[3]; recombinant NSF, α-SNAP, GST-SNAREs, TAT-NSF peptides 1 μM in Example 2",inhibits NSF disassembly activity
same,cysteine residues modified by NO per molecule of NSF,[4],approximately 3
